Consider 13 compounds from US8202513B2, “Aryl potassium channel blockers and uses thereof” (Bionomics Limited, priority 2007, dated 2012).

For one experiment, the target named is T1, human Kv1.3 ion channel (Homo sapiens, UniProt P22001).
T1 construct: Human Jurkat cells (which endogenously express hKv1.3) or Chinese Hamster Ovary (CHO) cells stably transfected with hKv1.3 were used; endogenous in cells; host or cells: Human Jurkat cells (endogenous) or CHO cells stably transfected with hKv1.3
Nature of the experiment: Inhibition of Kv1.3 currents, planar patch clamp. The class given is cell-based. The conditions noted are these: Human Jurkat cells or CHO cells stably transfected with hKv1.3; averaged dose response data from 3 or more cells. On the procedure: Potency of compounds to inhibit the human Kv1.3 ion channel was determined as follows:
EC50 values for inhibition of Kv1.3 currents were determined by the method according to Schmitz et al (2005) Molecular Pharmacology 68, 1254-1270 with the following differences: • 1. Human Jurkat cells (which endogenously express hKv1.3) or Chinese Hamster Ovary (CHO) cells stably transfected with hKv1.3 were used in place of transfected rat L929 cells. • 2. All electrophysiology was performed using planar patch clamp (Port-A-Patch, Nanion Technologies Gmbh, Munich) in contrast to conventional patch clamp. • 3. EC50 values shown were determined from averaged dose response data obtained from 3 or more cells.

A further experiment has as its target hKv1.5 (Homo sapiens, UniProt P22460). Put plainly: Inhibition of Kv1.5 currents, planar patch clamp (selectivity). The class given is cell-based. The conditions noted are these: CHO cells stably transfected with hKv1.5. On the procedure:
(§1) EC50 values for inhibition of Kv1.1 and Kv1.5 currents were determined by the method according to Schmitz et al (2005) Molecular Pharmacology 68, 1254-1270 with the following differences: • 1. Chinese Hamster Ovary (CHO) cells stably transfected with hKv1.1 and hKv1.5 were used in place of transfected rat L929 cells. • 2. All electrophysiology was performed using planar patch clamp (Port-A-Patch, Nanion Technologies Gmbh, Munich) in contrast to conventional patch clamp. • 3. EC50 values shown were determined from averaged dose response data obtained from 3 or more cells.

Another experiment deals with T2, hKv1.1 (Homo sapiens, UniProt Q09470).
T2 construct: expressed in transfected cells; host or cells: CHO cells, stably transfected
Put plainly: Inhibition of Kv1.1 currents, planar patch clamp (selectivity). Particulars: CHO cells stably transfected with hKv1.1. Format: cell-based. The protocol: as §1

The next experiment addresses Kv1.3 channel (Homo sapiens, UniProt P22001). Particulars: cited from earlier work.

T1 sequence (P22001 whole entry): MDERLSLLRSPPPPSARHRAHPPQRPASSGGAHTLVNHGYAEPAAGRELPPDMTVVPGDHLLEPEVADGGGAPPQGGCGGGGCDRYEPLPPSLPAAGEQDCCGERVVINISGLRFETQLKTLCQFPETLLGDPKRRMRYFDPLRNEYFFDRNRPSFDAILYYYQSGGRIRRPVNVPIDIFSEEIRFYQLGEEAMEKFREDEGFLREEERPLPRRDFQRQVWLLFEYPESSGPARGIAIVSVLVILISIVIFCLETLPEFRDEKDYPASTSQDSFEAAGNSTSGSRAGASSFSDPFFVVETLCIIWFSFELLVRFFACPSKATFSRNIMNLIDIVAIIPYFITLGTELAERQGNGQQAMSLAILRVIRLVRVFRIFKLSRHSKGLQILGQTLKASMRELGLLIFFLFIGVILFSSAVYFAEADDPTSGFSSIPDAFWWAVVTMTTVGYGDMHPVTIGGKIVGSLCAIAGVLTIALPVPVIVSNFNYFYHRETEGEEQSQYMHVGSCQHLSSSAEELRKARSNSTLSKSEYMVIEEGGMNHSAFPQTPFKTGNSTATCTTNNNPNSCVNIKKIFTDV
hKv1.5, sequence (P22460 whole entry): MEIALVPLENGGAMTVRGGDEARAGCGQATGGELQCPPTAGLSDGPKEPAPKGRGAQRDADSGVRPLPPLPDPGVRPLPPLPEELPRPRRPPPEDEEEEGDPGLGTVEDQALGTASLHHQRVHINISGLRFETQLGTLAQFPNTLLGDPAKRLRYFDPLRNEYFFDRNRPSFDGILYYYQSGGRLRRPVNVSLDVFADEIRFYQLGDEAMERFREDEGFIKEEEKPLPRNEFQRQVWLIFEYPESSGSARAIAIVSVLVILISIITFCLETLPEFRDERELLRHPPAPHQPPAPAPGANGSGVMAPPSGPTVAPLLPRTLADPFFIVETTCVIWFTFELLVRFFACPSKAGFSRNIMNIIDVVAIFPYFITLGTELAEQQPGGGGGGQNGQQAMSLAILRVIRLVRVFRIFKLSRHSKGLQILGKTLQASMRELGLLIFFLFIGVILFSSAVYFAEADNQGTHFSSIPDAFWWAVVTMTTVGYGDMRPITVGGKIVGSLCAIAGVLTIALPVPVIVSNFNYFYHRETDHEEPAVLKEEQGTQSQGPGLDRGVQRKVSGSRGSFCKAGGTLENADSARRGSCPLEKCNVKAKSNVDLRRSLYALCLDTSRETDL
T2 sequence (Q09470 whole entry): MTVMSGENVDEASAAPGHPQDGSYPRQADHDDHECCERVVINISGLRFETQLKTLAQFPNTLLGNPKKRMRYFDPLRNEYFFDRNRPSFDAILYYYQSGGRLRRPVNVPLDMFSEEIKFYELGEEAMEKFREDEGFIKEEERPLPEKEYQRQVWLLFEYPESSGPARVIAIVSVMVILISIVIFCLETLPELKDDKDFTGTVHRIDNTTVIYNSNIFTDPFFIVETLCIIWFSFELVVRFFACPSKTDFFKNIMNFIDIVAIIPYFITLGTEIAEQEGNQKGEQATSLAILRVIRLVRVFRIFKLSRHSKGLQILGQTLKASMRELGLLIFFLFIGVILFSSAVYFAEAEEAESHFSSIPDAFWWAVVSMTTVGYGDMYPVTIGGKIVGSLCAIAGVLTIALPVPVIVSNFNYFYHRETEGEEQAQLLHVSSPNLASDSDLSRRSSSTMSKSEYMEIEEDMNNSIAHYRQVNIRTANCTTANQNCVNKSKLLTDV
Kv1.3 channel, sequence (P22001 whole entry): as the sequence (P22001 whole entry) above

In the case of `COc1c(Cl)c(C)c(C(C)=O)c(OCCc2ccccn2)c1OCCC(C)c1ccc(F)cc1` (centres unmarked) [Example 7d, 1-[3-Chloro-5-[3-(4-fluoro-phenyl)-butoxy]-4-methoxy-2-methyl-6-(2-pyridin-2-yl-ethoxy)-phenyl]-ethanone], the 50% effective concentration (EC50) at human Kv1.3 ion channel was less than 50 nM. Further, the “selectivity for Kv1.3 over Kv1.5” value at hKv1.5 is recorded as 37 fold. The “Selectivity for Kv1.3 over Kv1.1” value at hKv1.1 is listed as 45 fold.
On to `COc1c2occc2cc2ccc(=O)oc12` [8-Methoxypsoralen (8-MOP), 8-Methoxypsoralen], for which the “blocking activity on the Kv1.3 channel” value on Kv1.3 channel is “weak blocking activity”.
As for `COc1c(Cl)c(C)c(C(C)=O)c(OCCN2CCOCC2)c1OCCC(C)c1ccc(F)cc1` (centres unmarked) [Example 8b, 1-[3-Chloro-5-[3-(4-fluoro-phenyl)-butoxy]-4-methoxy-2-methyl-6-(2-morpholin-4-yl-ethoxy)-phenyl]-ethanone], on human Kv1.3 ion channel, the EC50 is less than 50 nM. Besides, the “selectivity for Kv1.3 over Kv1.5” value on hKv1.5 is recorded as 35 fold. Further, the “Selectivity for Kv1.3 over Kv1.1” value at hKv1.1 worked out at 33 fold.
In the case of `COc1c(C(C)=O)c(O)c(OC)c2occc12` [Khellinone], the “blocking activity on the Kv1.3 channel” value at Kv1.3 channel was “weak blocking activity”.
With `COc1c(Cl)c(C)c(C(C)=O)c(OCCN2CCC(F)CC2)c1OCCC(C)c1ccc(F)cc1` (centres unmarked) [Example 11, 1-{3-Chloro-5-[3-(4-fluoro-phenyl)-butoxy]-6-[2-(4-fluoro-piperidin-1-yl)-ethoxy]-4-methoxy-2-methyl-phenyl}-ethanone], the half-maximal effective concentration (EC50) on human Kv1.3 ion channel lay within 50 to 150 nM.
On human Kv1.3 ion channel, `COc1c(Cl)c(C)c(C(C)=O)c(OCCCN2CC[S+]([O-])CC2)c1OCCC(C)c1ccc(F)cc1` (centres unmarked) [Example 24, 1-{3-Chloro-5-[3-(4-fluoro-phenyl)-butoxy]-4-methoxy-2-methyl-6-[3-(1-oxo-thiomorpholin-4-yl)-propoxy]-phenyl}-ethanone] returned an EC50 of 50 to 150 nM.
For the compound `COc1c(Cl)c(C)c(C(C)=O)c(OCc2ccccn2)c1OCCC(C)c1ccc(F)cc1` (centres unmarked) [Example 13, 1-[3-Chloro-5-[3-(4-fluoro-phenyl)-butoxy]-4-methoxy-2-methyl-6-(pyridin-2-ylmethoxy)-phenyl]-ethanone], the EC50 on human Kv1.3 ion channel lay within 150 to 300 nM.
For `COc1c(C)c(C)c(C(C)=O)c(OCCN2CCOCC2)c1OCCC(C)c1ccc(F)cc1` (centres unmarked) [Example 5, 1-[3-[3-(4-Fluoro-phenyl)-butoxy]-4-methoxy-5,6-dimethyl-2-(2-morpholin-4-yl-ethoxy)-phenyl]-ethanone], the EC50 at human Kv1.3 ion channel was less than 50 nM.
With `COc1cc(C)c(C(C)=O)c(OCCN2CCOCC2)c1OCCCc1ccccc1` [Example 33b, 1-[4-Methoxy-6-methyl-2-(2-morpholin-4-yl-ethoxy)-3-(3-phenyl-propoxy)-phenyl]-ethanone], the concentration giving a half-maximal response (EC50) at human Kv1.3 ion channel is 150 to 300 nM.
With `COc1cc(C)c(C(C)=O)c(O)c1OCCCc1ccccc1` [Example 33a, 1-(3-(3-(phenyl)propoxy)-2-hydroxy-4-methoxy-6-methylphenyl)ethanone, reference compound], the 50% effective concentration (EC50) on human Kv1.3 ion channel was greater than 300 nM.
`COc1c(Cl)c(C)c(C(C)=O)c(OCCN2CCOCC2)c1CCCCc1ccccc1` [Example 26b, 1-(3-Chloro-4-methoxy-2-methyl-6-(2-morpholinoethoxy)-5-5(4-phenylbutyl)phenyl)ethanone] yielded an EC50 on human Kv1.3 ion channel of less than 50 nM.
On human Kv1.3 ion channel, `COc1c(Cl)c(C)c(C(C)=O)c(OCCCN2CCS(=O)(=O)CC2)c1OCCC(C)c1ccc(F)cc1` (centres unmarked) [Example 23, 1-{3-Chloro-6-[3-(1,1-dioxo-thiomorpholin-4-yl)-propoxy]-5-[3-(4-fluoro-phenyl)-butoxy]-4-methoxy-2-methyl-phenyl}-ethanone] had an EC50 of less than 50 nM.
On the same count and under the same terms, the result for `COc1c(Cl)c(C)c(C(C)=O)c(OCCN2CCCC(F)(F)C2)c1OCCC(C)c1ccc(F)cc1` (centres unmarked) [Example 17, 1-{3-Chloro-6-[2-(3,3-difluoro-piperidin-1-yl)-ethoxy]-5-[3-(4-fluoro-phenyl)-butoxy]-4-methoxy-2-methyl-phenyl}-ethanone] reads less than 50 nM.
